Marks after values point to notes of the source that are not given here.
How the values were obtained:
cAMP = test: Parotid saliva cAMP before and after oral theophylline (Example 2); format: in vivo, human; details: for parotid saliva cAMP: mean ± SEM
Experimental: (§1) Parotid saliva was collected from each patient by application of a Lashley cup over Stensen's duct with lingual stimulation by placement of concentrated lemon juice. Saliva was collected in plastic tubes and stored at −20° C. until assayed. cAMP and cGMP were measured in saliva by a sensitive 96 plate spectrophotometric assay (R&D Systems, Minneapolis, Minn.).
(§2) All patients were placed in a fixed design open label clinical trial with treatment with oral theophylline. Treatment consisted of fixed treatment periods of two-eight months with sequential doses of the drug at 200 mg, 400 mg and 600 mg. At termination of each of these intervals, patients returned to study site for reevaluation. At the end of each interval subjective responses to treatment were measured with a modification of the 0-100 scale previously used (vs). Subjective responses to treatment were graded on a sliding scale from −100-0-+100 with patients recording improvement (+0-+100), no improvement (0) or worsening (0-−100) of their overall smell function. If overall smell function improved ≥5% they were considered to improve clinically (1). If smell function improved <5% they were considered not to improve (1). At the end of each interval subjective measurements of smell function, measurements of DT, RT, ME and H and measurements of parotid saliva for levels of cAMP and cGMP were obtained. In addition, blood plasma was obtained by venipuncture, placed in ice into zinc free tubes which contained 100 mg zinc free heparin, centrifuged at 3000 rpm for 10-20 min, the plasma transferred to plastic PCR tubes and stored at −20° C. until assayed. Theophylline was assayed by a fluorescence polarization assay (Abbott, Chicago, Ill.), as previously described.
(§3) Data for the cyclic nucleotides from these 31 patients was not analyzed until the entire study of the 312 patients in Example 1 was assembled and analyzed in its entirety. After completion of these analyses, all data for parotid saliva cAMP and cGMP from all patients in whom salivary cAMP and cGMP were obtained were assembled. Levels of salivary cyclic nucleotides varied widely. Initially, without external criteria, there was no way to understand these disparate data. […] In a similar manner, measurements of each patient's plasma theophylline level at each dosage of theophylline (at 200 mg, 400 mg, 600 mg of theophylline) were categorized. The two patient groups were also analyzed post hoc with respect to type of smell loss and etiology of smell loss.

asthmatic patients = test: sGaw after dry powder inhalation, dose escalating single blind study (Examples 5 and 6); details: 2 mg theophylline
Experimental: (§4) To test this theory, asthmatic patients are enrolled in a dose escalating single blind study. On arrival to the clinic, subjects are allowed to rest for 20 minutes before baseline measurements of FEV1 (six recordings) and sGaw (five recordings) are made. Subjects receive a dry powder dispenser loaded with a dose of 2 mg theophylline or a dry powder carrier. […] After each inhalation, measurements of sGaw are made at 1, 3, 5, 10, 15, 20, 25, and 30 minutes.
On completion of the last recording, subjects inhale a 200 μg dose of salbutamol from a metered inhaler and a further measurement of sGaw is made after 15 minutes. Subjects are also monitored for coughing and are questioned about the taste of the drug.
as §4, with “Asthmatic patients” for “To test this theory, asthmatic patients”, “of 1” for “of 2”, “mg IBMX formulated as a dry powder” for “mg theophylline”
On completion of the last recording, subjects inhale a 200 μg dose of salbutamol from a metered inhaler and a further measurement of sGaw mad after 15 minutes. Subjects are also be monitored for coughing and are questioned about the taste of the drug.

cGMP = test: Parotid saliva cGMP before and after oral theophylline (Example 2); format: in vivo, human; details: mean ± SEM
Experimental: as §1, §2, §3

[1] = system: patients with hyposmia and hypogeusia; details: oral 200 to 800 mg/d
Experimental: Smell and taste functions under each study condition were measured by standardized psychophysical sensory testing techniques. Measurements included determination of detection thresholds (DTs), recognition thresholds (RTs), magnitude estimation (ME), and hedonic response (HR) for 4 odors (e.g., pyridine [dead fish], nitrobenzene [bitter almond], thiophene [petroleum], and amyl acetate [banana oil]) (olfactometry) and for 4 tastants (e.g., sodium chloride [salt], sucrose [sweet], hydrochloride [sour], and urea [bitter]) (gustometry). […] Each measurement was performed independent of any prior knowledge of response.
Values for the oral trial were taken from the last measurements made before discontinuation of oral drug treatment and before initiation of the intranasal trial. This period varied from 2 to 12 months after oral treatment initiation and reflected the maximal improvement in sensory function each patient experienced.
The mean and standard error of the mean for all values obtained at each study condition were compared. Differences were considered significant if P<0.05 by the unpaired t test. Paired comparison tests were also used with differences considered significant if P<0.05 by the t test.

patients with hyposmia [2] = test: Classification of patients as improved or unimproved on theophylline (Example 2); format: in vivo, human
Experimental: as §2, §3
Differences in the characteristics between these two patient groups were analyzed with respect to each measurement obtained (Mean±SEM). Differences between mean±SEM were analyzed using Student t test and X2; differences of p≤5% were considered significant.

patients with hyposmia [3] = test: Side effects of oral theophylline (Example 1); format: in vivo, human; details: divided doses in middle of meals
Text: Patients were required to take the drug in divided doses in middle of meals (breakfast and lunch).

[4] = patients with unimproved smell function, oral 200 mg (9 patients)
[5] = of 31 patients on oral theophylline 200-600 mg

Cn1c(=O)c2[nH]cnc2n(C)c1=O [theophylline]
increase of saliva cAMP above baseline (cAMP; improved patients, oral 200 mg, not significant): 10% | increase of saliva cAMP over baseline (cAMP; improved patients, oral 400 mg, not statistically significant): 40% | increase of saliva cAMP above initial values (cAMP; improved patients, oral 600 mg, significant): 67% | parotid saliva cAMP (cAMP; patients with improved smell function, oral 200 mg (16 patients)): 0.96 ± 0.13 pmol/mL | parotid saliva cAMP (cAMP; [4]): 0.78 ± 0.26 pmol/mL | parotid saliva cAMP (cAMP; patients with unimproved smell function, oral 400 mg (5 patients)): 0.95 ± 0.26 pmol/mL | parotid saliva cAMP (cAMP; patients with unimproved smell function, oral 600 mg (9 patients)): 0.56 ± 0.21 pmol/mL | increase in sGaw compared with 200 μg salbutamol (asthmatic patients): comparable to that produced by salbutamol | sGaw above the baseline measurement after 30 minutes (asthmatic patients): 20% | taste and coughing of the dry powder formulation (asthmatic patients): without the unpleasant taste or the induction of coughing | time until sGaw baseline is reached (asthmatic patients): 1 h | parotid saliva cGMP (cGMP; patients with improved smell function, oral 200 mg (15 patients)): 0.08 ± 0.016 pmol/mL | parotid saliva cGMP (cGMP; [4]): 0.07 ± 0.018 pmol/mL | parotid saliva cGMP (cGMP; patients with unimproved smell function, oral 400 mg (4 patients)): 0.05 ± 0.014 pmol/mL | parotid saliva cGMP (cGMP; patients with unimproved smell function, oral 600 mg (5 patients)): 0.04 ± 0.07 pmol/mL | hypogeusia (gustometry overall) [1]: improved after 2 to 12 months of treatment | DTs for sucrose and hydrochloride and RTs for sodium chloride, hydrochloride and urea ([1]; 2 to 12 months): decreased (more sensitive) | HR for hydrochloride and urea ([1]; 2 to 12 months): increased (more unpleasant) | magnitude estimations for all tastants ([1]; 2 to 12 months): increased (more sensitive) | patients identified as having improved smell function (patients with hyposmia [2]; [5]): 20 patients | patients who did not improve (patients with hyposmia [2]; [5]): 11 patients | improved patients exhibiting Type II hyposmia (patients with hyposmia [2]; oral theophylline, Example 2): 95% | patient number, improved, etiology PIHH (patients with hyposmia [2]; oral theophylline, Example 2): 6 | patient number, improved, etiology allergic rhinitis (AR) (patients with hyposmia [2]; oral theophylline, Example 2): 8 | patient number, improved, etiology head injury (HI) (patients with hyposmia [2]; oral theophylline, Example 2): 3 | patient number, improved, etiology other (patients with hyposmia [2]; oral theophylline, Example 2): 3 | patient number, improved, smell loss Type I (patients with hyposmia [2]; oral theophylline, Example 2): 1 | patient number, improved, smell loss Type II (patients with hyposmia [2]; oral theophylline, Example 2): 19^a | patient number, unimproved, etiology PIHH (patients with hyposmia [2]; oral theophylline, Example 2): 0 | patient number, unimproved, etiology allergic rhinitis (AR) (patients with hyposmia [2]; oral theophylline, Example 2): 8 | patient number, unimproved, etiology head injury (HI) (patients with hyposmia [2]; oral theophylline, Example 2): 3 | patient number, unimproved, etiology other (patients with hyposmia [2]; oral theophylline, Example 2): 0 | patient number, unimproved, smell loss Type I (patients with hyposmia [2]; oral theophylline, Example 2): 4 | patient number, unimproved, smell loss Type II (patients with hyposmia [2]; oral theophylline, Example 2): 7 | unimproved patients exhibiting Type I hyposmia (patients with hyposmia [2]; oral theophylline, Example 2): 57% | side effects among patients (patients with hyposmia [3]): generally minimal

— patent publication US20190231785A1, “PHOSPHODIESTERASE INHIBITOR TREATMENT” (Cyrano Therapeutics, Inc., priority 2012, published 2019)
